Values joined by “and” are separate entries in the source; they are usually repeats but may differ in a detail not shown here. Equal values may be shown once.
Columns and labels:
ABL1 (T315I) = ABL1 (T315I) (Homo sapiens, UniProt P00519, T315I); assay: Luminescence-based ABL kinase assay (300 μM ATP), ADP-Glo; format: biochemical
ABL1 = target: T1, ABL1 (Homo sapiens, UniProt P00519); assay: as above; format: biochemical
T1 construct: purchased Carna Biosciences
Source text: Compounds were serially diluted in DMSO. […] Luminescence signal positively correlates with kinase activity.

Row | SMILES | IC50 (ABL1 (T315I)) | IC50 (ABL1)
1 | CCNC(=O)Nc1cc2cc(-c3cccnc3OC)n(C)c2cn1 [Compound 78, 3-ethyl-1-[2-(2-methoxypyridin-3-yl)-1-methylpyrrolo[2,3-c]pyridin-5-yl]urea] | 411 nM | 183 nM
2 | COc1ncccc1-c1cc2cnc(NC(=O)C3CC3)cc2n1C [Compound 50, N-[2-(2-methoxypyridin-3-yl)-1-methylpyrrolo[3,2-c]pyridin-6-yl]cyclopropanecarboxamide] | 681 nM | 294 nM
3 | COc1nc(OC)c(-c2cc3cc(NC(=O)[C@@H]4C[C@@H]4F)ncc3n2C)c(OC)n1 [Compound 102, (1S,2S)-2-fluoro-N-(1-methyl-2-(2,4,6-trimethoxypyrimidin-5-yl)-1H-pyrrolo[2,3-c]pyridin-5-yl)cyclopropane-1-carboxamide] | 412 nM | 123 nM
4 | Cc1cccnc1-c1cc2cc(NC(=O)C3CC3)ncc2n1C [Compound 20, N-[1-methyl-2-(3-methylpyridin-2-yl)pyrrolo[2,3-c]pyridin-5-yl]cyclopropanecarboxamide] | 999 nM | > 10000 nM
5 | COc1ccccc1-c1cc2cnc(NC(=O)[C@@H]3C[C@@H]3F)cc2n1C [Compound 51, (1S,2S)-2-fluoro-N-[2-(2-methoxyphenyl)-1-methylpyrrolo[3,2-c]pyridin-6-yl]cyclopropane-1-carboxamide] | 64.1 nM | 88.6 nM
6 | COc1cccc(F)c1-c1c(C)c2cc(NC(=O)[C@H]3C[C@H]3F)ncc2n1C [Compound 45, (1R,2R)-2-fluoro-N-[2-(2-fluoro-6-methoxyphenyl)-1,3-dimethylpyrrolo[2,3-c]pyridin-5-yl]cyclopropane-1-carboxamide] | 17.9 nM | 220 nM
7 | [2H]C([2H])([2H])Oc1ncccc1-c1cc2cc(NC(=O)[C@H]3C[C@H]3F)ncc2n1C [Compound 33, (1R,2R)-2-fluoro-N-(2-(2-(methoxy-d3)pyridin-3-yl)-1-methyl-1H-pyrrolo[2,3-c]pyridin-5-yl)cyclopropane-1-carboxamide] | 183 nM | 59.5 nM
8 | Cc1cc2[nH]ncc2cc1-c1cc2cc(NC(=O)C3CC3)ncc2n1C [Compound 16, N-(1-methyl-2-(6-methyl-1H-indazol-5-yl)-1H-pyrrolo[2,3-c]pyridin-5-yl)cyclopropanecarboxamide] | 545 nM | 184 nM
9 | COc1ccnc(OC)c1-c1cc2cc(NC(=O)[C@@H]3C[C@H]3CN3CC4CC(C3)N4)ncc2n1C (single isomer, unassigned) [Example 135, Enantiomer 2] | 26 nM | 10.6 nM
10 | COc1ncnc(OC)c1-c1[nH]c2cc(NC(=O)[C@@H]3C[C@@H]3F)ncc2c1C [Compound 91, (1S,2S)-N-(2-(4,6-dimethoxypyrimidin-5-yl)-3-methyl-1H-pyrrolo[3,2-c]pyridin-6-yl)-2-fluorocyclopropane-1-carboxamide] | 399 nM | 388 nM
11 | COc1ccccc1-c1cc2cc(NC(=O)[C@H]3C[C@H]3CN3CCN(C)CC3)ncc2n1C (relative stereo) [Compound 40, cis-N-(2-(2-methoxyphenyl)-1-methyl-1H-pyrrolo[2,3-c]pyridin-5-yl)-2-((4-methylpiperazin-1-yl)methyl)cyclopropane-1-carboxamide] | 145 nM | 113 nM
12 | CCN1CCN(CCNC(=O)Nc2cc3cc(-c4c(OC)ncc(F)c4OC)n(C)c3cn2)CC1 [Compound 84, 1-[2-(4-ethylpiperazin-1-yl)ethyl]-3-[2-(5-fluoro-2,4-dimethoxypyridin-3-yl)-1-methylpyrrolo[2,3-c]pyridin-5-yl]urea] | 164 nM | 44.5 nM
13 | COc1cccc(F)c1-c1c(C)c2cnc(NC(=O)[C@H]3C[C@H]3F)cc2n1C [Compound 55, (1R,2R)-2-fluoro-N-[2-(2-fluoro-6-methoxyphenyl)-1,3-dimethylpyrrolo[3,2-c]pyridin-6-yl]cyclopropane-1-carboxamide] | 7.24 nM | 71.3 nM
14 | Cc1c(-c2cc3cc(NC(=O)C4CC4)ncc3n2C)ccc2c1CCN2 [Compound 13, N-[1-methyl-2-(4-methyl-2,3-dihydro-1H-indol-5-yl)pyrrolo[2,3-c]pyridin-5-yl]cyclopropanecarboxamide] | 300 nM | 567 nM
15 | COc1ccccc1-c1cc2cc(NC(=O)[C@H]3C[C@H]3CN3CCOCC3)ncc2n1C (relative stereo) [Compound 41, cis-N-(2-(2-methoxyphenyl)-1-methyl-1H-pyrrolo[2,3-c]pyridin-5-yl)-2-(morpholinomethyl)cyclopropane-1-carboxamide] | 212 nM | 324 nM
16 | Cc1c(-c2cc3cc(NC(=O)C4CC4)ncc3n2C)ccc2[nH]ccc12 [Compound 15, N-[1-methyl-2-(4-methyl-1H-indol-5-yl)pyrrolo[2,3-c]pyridin-5-yl]cyclopropanecarboxamide] | 101 nM | 103 nM
17 | Cc1c(-c2cc3cc(NC(=O)C4CC4)ncc3n2C)ccc2[nH]ncc12 [Compound 18, N-[1-methyl-2-(4-methyl-1H-indazol-5-yl)pyrrolo[2,3-c]pyridin-5-yl]cyclopropanecarboxamide] | 336 nM | 743 nM

Row | SMILES | IC50 (ABL1 (T315I)) | IC50 (ABL1)
18 | COc1cc2ncsc2cc1-c1cc2cc(NC(=O)[C@@H]3C[C@@H]3F)ncc2n1C [Compound 69, (1S,2S)-2-fluoro-N-[2-(5-methoxy-1,3-benzothiazol-6-yl)-1-methylpyrrolo[2,3-c]pyridin-5-yl]cyclopropane-1-carboxamide] | 62.9 nM | 20.4 nM
19 | CNc1ncnc(OC)c1-c1cc2cc(NC(=O)[C@@H]3C[C@@H]3F)ncc2n1C [Compound 109, (1S,2S)-2-fluoro-N-(2-(4-methoxy-6-(methylamino)pyrimidin-5-yl)-1-methyl-1H-pyrrolo[2,3-c]pyridin-5-yl)cyclopropane-1-carboxamide] | 203 nM | 60.2 nM
20 | COc1ncc(F)c(OC)c1-c1cc2cc(NC(=O)[C@H]3C[C@@H]3CN(C)C)ncc2n1C (single isomer, unassigned) [Compound 131] | 78.3 nM | 78.3 nM
21 | COc1ncncc1-c1cc2cc(NC(=O)[C@@H]3C[C@@H]3F)ncc2n1C [Compound 68, (1S,2S)-2-fluoro-N-(2-(4-methoxypyrimidin-5-yl)-1-methyl-1H-pyrrolo[2,3-c]pyridin-5-yl)cyclopropane-1-carboxamide] | 431 nM | 109 nM
22 | Cn1c(-c2ccccc2OCCO)cc2cc(NC(=O)C3CC3)ncc21 [Compound 4, N-[2-[2-(2-hydroxyethoxy)phenyl]-1-methylpyrrolo[2,3-c]pyridin-5-yl]cyclopropanecarboxamide] | 599 nM | 817 nM
23 | CCOc1ncccc1-c1cc2cc(NC(=O)[C@H]3C[C@H]3F)ncc2n1C [Compound 37, (1R,2R)-N-[2-(2-ethoxypyridin-3-yl)-1-methylpyrrolo[2,3-c]pyridin-5-yl]-2-fluorocyclopropane-1-carboxamide] | 551 nM | 35.4 nM
24 | COc1ncnc(NC2CC2)c1-c1cc2cc(NC(=O)[C@@H]3C[C@@H]3F)ncc2n1C [Compound 110, (1S,2S)-N-(2-(4-(cyclopropylamino)-6-methoxypyrimidin-5-yl)-1-methyl-1H-pyrrolo[2,3-c]pyridin-5-yl)-2-fluorocyclopropane-1-carboxamide] | 357 nM | 280 nM
25 | CCn1c(-c2cccnc2OC)cc2cc(NC(=O)[C@@H]3C[C@@H]3F)ncc21 [Compound 63, (1S,2S)-N-(1-ethyl-2-(2-methoxypyridin-3-yl)-1H-pyrrolo[2,3-c]pyridin-5-yl)-2-fluorocyclopropane-1-carboxamide] | 2670 nM and 4510 nM | 1430 nM and 1350 nM
26 | CCNC(=O)Nc1cc2cc(-c3ccccc3OC)n(C)c2cn1 [Compound 77, 3-ethyl-1-[2-(2-methoxyphenyl)-1-methylpyrrolo[2,3-c]pyridin-5-yl]urea] | 148 nM | 95.9 nM
27 | COc1ccnc(OC)c1-c1cc2cc(NC(=O)[C@@H]3C[C@H]3CN3CCNCC3)ncc2n1C (single isomer, unassigned) [Compound 139] | 85.9 nM | 48.6 nM
28 | Cc1c(-c2cc3cc(NC(=O)C4CC4)ncc3n2C)ccc2[nH]cnc12 [Compound 19, N-[1-methyl-2-(4-methyl-1H-1,3-benzodiazol-5-yl)pyrrolo[2,3-c]pyridin-5-yl]cyclopropanecarboxamide] | 68.3 nM | 263 nM
29 | COc1ccnc(OC)c1-c1cc2cc(NC(=O)[C@H]3C[C@@H]3CN3CC4CC(C3)N4)ncc2n1C (single isomer, unassigned) [Example 135, Enantiomer 1] | 66.7 nM | 30 nM
30 | Cc1cc2[nH]cnc2cc1-c1cc2cc(NC(=O)C3CC3)ncc2n1C [Compound 17, N-[1-methyl-2-(6-methyl-1H-1,3-benzodiazol-5-yl)pyrrolo[2,3-c]pyridin-5-yl]cyclopropanecarboxamide] | 160 nM | 59.7 nM
31 | COc1cc2nccn2cc1-c1cc2cc(NC(=O)[C@@H]3C[C@@H]3F)ncc2n1C [Compound 71, (1S,2S)-2-fluoro-N-(2-(7-methoxyimidazo[1,2-a]pyridin-6-yl)-1-methyl-1H-pyrrolo[2,3-c]pyridin-5-yl)cyclopropane-1-carboxamide] | 716 nM | 105 nM
32 | COc1nc(C(F)F)nc(OC)c1-c1cc2cc(NC(=O)[C@@H]3C[C@@H]3F)ncc2n1C [Compound 96, (1S,2S)-N-(2-(2-(difluoromethyl)-4,6-dimethoxypyrimidin-5-yl)-1-methyl-1H-pyrrolo[2,3-c]pyridin-5-yl)-2-fluorocyclopropane-1-carboxamide] | 207 nM | 40.4 nM
33 | Cc1cc2[nH]ccc2cc1-c1cc2cc(NC(=O)C3CC3)ncc2n1C [Compound 14, N-(1-methyl-2-(6-methyl-1H-indol-5-yl)-1H-pyrrolo[2,3-c]pyridin-5-yl)cyclopropanecarboxamide] | 124 nM | 29.6 nM

Source: patent US12240846B2 (Enliven Inc., priority 2020, dated 2025)
